Experimental data from patent US4650790A, “Drug combinations having synergistic effect” (Patentbureau Danubia, priority 1984, dated 1987).
Counter-ions that a name gives are not always drawn. Like-named read-outs stand apart in the source and are kept apart here.

Experiments:
[1] = system: E. coli (Swine); assay: Microbiological assay, MIC and MBC, E. coli (Swine); assay type: cell-based; settings: combinations 1:1 by weight
[2] = system: Salmonella typhi-murium; assay: Microbiological assay, MIC and MBC, Salmonella typhi-murium; assay type: cell-based; settings: combinations 1:1 by weight
[3] = system: E. coli (Calf); assay: Microbiological assay, MIC and MBC, E. coli (Calf); settings: combinations 1:1 by weight
[4] = system: Pasteurella multocida; assay: Microbiological assay, MIC and MBC, Pasteurella multocida; settings: combinations 1:1 by weight
[5] = system: Staphylococcus aureus; assay: Microbiological assay, minimal inhibiting (MIC) and minimal bactericide (MBC) concentrations, Staphylococcus aureus; settings: combinations 1:1 by weight
[6] = system: Pseudomonas strains of mastitic origin; settings: cited from earlier work
[7] = system: some Gram positive bacteria, Mycoplasma and the most important Treponema; settings: cited from earlier work
[8] = system: Treponema hyodysenteriae; settings: orally applied; swine dysentery; British patent specification No. 2,072,012; cited from earlier work
[9] = system: Mycoplasma hyopneumoniae; settings: orally applied; enzootic pneumonia; Taylor, IPVS Congress 1982; cited from earlier work
[10] = in vivo; cited from earlier work
[11] = Escherichia coli, read-out: MBC
[12] = Escherichia coli, read-out: MIC

For Gentamycin, the MBC [1] was 5 µg/mL, the MIC [1] was 5 µg/mL and the MBC [2] was 5 µg/mL. The MIC [2] was 5 µg/mL, the MBC [3] was 5 µg/mL and the MIC [3] was 5 µg/mL. The MBC [4] was 1 µg/mL, the MIC [4] was less than 0.5 µg/mL and the MBC [5] was 5 µg/mL. For the same compound, the MIC [5] was 0.5 µg/mL.

Work on `NC[C@H]1O[C@H](O[C@H]2[C@H](O)[C@@H](O[C@H]3O[C@H](CO)[C@@H](O)[C@H](N)[C@H]3O)[C@H](N)C[C@@H]2N)[C@H](O)[C@@H](O)[C@@H]1O` [Kanamycin] yielded an MBC [1, 11] of 25 µg/mL, an MIC [1, 12] of 10 µg/mL and an MBC ([2]; Salmonella enterica, read-out: MBC) of 50 µg/mL. For the same compound, the MIC ([2]; Salmonella enterica, read-out: MIC) was 25 µg/mL.

In the case of `[H]/N=C(/N)N[C@H]1[C@H](O)[C@@H](O)[C@H](O[C@@H]2O[C@@H](C)[C@](O)(C=O)[C@H]2O[C@@H]2O[C@@H](CO)[C@H](O)[C@@H](O)[C@@H]2NC)[C@@H](N/C(N)=N\[H])[C@@H]1O` [Streptomycin], the MBC [1, 11] is reported as greater than 200 µg/mL and the MIC [1, 12] is reported as 100 µg/mL.

For `NC[C@H]1O[C@H](O[C@H]2[C@H](O)[C@@H](O[C@H]3O[C@H](CO)[C@@H](O)[C@H](N)[C@H]3O)[C@H](N)C[C@@H]2N)[C@H](N)C[C@@H]1O` [Tobramycin], the MBC [1, 11] was 5 µg/mL and the MIC [1, 12] was 1 µg/mL.

In the case of `CN[C@@H]1[C@@H](O[C@H]2O[C@H](CO)[C@@H](N)[C@H](O)[C@H]2O)OC2C[C@@H](N)[C@@H](O[C@H]3[C@H](O)[C@@H](O)[C@H](N)C[C@@H]3N)OC2[C@@H]1O` (stereo partly shown) [Apramycin], the MBC [1, 11] is given as 25 µg/mL, the MIC [1, 12] is given as 25 µg/mL and the “effect against Pseudomonas strains of mastitic origin” value [6] is given as “particularly strong effect”.

In the case of `C=C[C@]1(C)C[C@@H](OC(=O)CSCCN(CC)CC)[C@]2(C)[C@H](C)CC[C@]3(CCC(=O)[C@H]32)[C@@H](C)[C@@H]1O` [Tiamulin, 14-desoxy-14-[(2-diethyl-amino-ethyl)-mercapto-acetoxy]-mutilin hydrogen fumarate], the MBC [1, 11] is listed as 100 µg/mL, the MIC [1, 12] is listed as 50 µg/mL and the “effectiveness against some Gram positive bacteria, Mycoplasma and Treponema” value [7] is listed as “effective against some Gram positive bacteria, Mycoplasma and the most important Treponema”. For the same compound, the “effectiveness against Treponema hyodysenteriae” value [8] was “extremely effective” and the “effectiveness against Mycoplasma hyopneumoniae” value [9] was “extremely effective”.

In the case of `NC[C@@H]1O[C@H](O[C@H]2[C@@H](O)[C@H](O[C@@H]3[C@@H](O)[C@H](N)C[C@H](N)[C@H]3O[C@H]3O[C@H](CN)[C@@H](O)[C@H](O)[C@H]3N)O[C@@H]2CO)[C@H](N)[C@@H](O)[C@@H]1O` [Neomycin], the MBC [1] is reported as 10 µg/mL, the MIC [1] is reported as 5 µg/mL and the MBC [2] is reported as 25 µg/mL. The MIC [2] was 10 µg/mL, the nephrotoxic properties [10] was “may cause azotaemia and oliguria” and the MBC [3] was greater than 200 µg/mL. The MIC [3] was greater than 200 µg/mL, the MBC [4] was 5 µg/mL and the MIC [4] was 1 µg/mL. The MBC [5] was 25 µg/mL and the MIC [5] was 10 µg/mL.
